Drawing on US5783201A, “Method for treating non-ocular epithelial disorders via increasing heme oxygenase levels and/or decreasing levels of arachidonic acid derivatives” (Hemogen, Inc., priority 1997, dated 1998), this text covers Heme oxygenase for one molecule.

The test system of the assay is heme oxygenase. Briefly: microsomal heme oxygenase activity in CCD-860SK skin fibroblast cells. The class given is cell-based, human. The note with it: 100 μM; CCD-860 skin fibroblast cells, collected after two hours; mean ± SD; control 294 ± 18. On the procedure:
Cell line CCD-860SK is a human skin fibroblast cell line which is publicly available from the American Type Culture Collection. Cell cultures of this line were propagated in Iscove's modified Dulbecco's medium supplemented with 10% fetal bovine […]. Following propagation, they were grown in 175 cm^2 Falcon tissue culture flasks, using Iscove's modified Dulbecco's medium, supplemented with 10% (v/v) heat inactivated fetal bovine serum, 50 U penicillin/ml, 50 ug streptomycin/ml, and 2 mM glutamine. The cells were then seeded into culture flasks at a concentration of 1×10^5 cells/ml, and incubated at 37° C. in a humidified 5% CO2 /95% air chamber. After three days, old media were removed, and replaced with fresh media. […]
To measure total enzyme activity, microsomes were prepared as described by Tenhunen et al., J. Biol. Chem. 244: 6388-6394 (1969), incorporated by reference herein. The activity of microsomal heme oxygenase was then determined, using 0.5-1 mg protein in an incubation medium as described by Tenhunen et al., supra. Total protein was then determined using the classic method of Lowry et al., J. Biol. Chem. 193: […] (1951), using bovine serum albumin as standard.

Molecule `[Cl][Sn][Cl]` [SnCl2] yielded a Heme oxygenase of 802 ± 49 pmol bilirubin/mg/hr.
